# “Also recorded” adds a separate entry of the source. Where two headings read alike, the source gives them in different places. Non-standard residues stand in square brackets, D forms with d. Residues, ends and D or L forms follow the SMILES beside them. pGlu = O=C1CC[C@@H](C(=O)O)N1
# Experiments:
# [1] = biological target: GnRH receptor (HepG2 membrane preparation); experiment: GnRH in vitro binding to HepG2 membrane preparation (radioreceptor assay); set-up: species or system human; conditions: for Kd: 95% confidence interval in parentheses; for Displacement / competitive inhibition of labeled [D-Lys6]-GnRH binding to HepG2 membrane preparation: unlabeled non-GnRH peptides, FIG. 2B
# Protocol: (§1) Cells were grown to confluence as previously described and harvested from the flasks by using a rubber policeman. The cells were washed in normal assay buffer (([…] Tris[hydroxymethyl] aminomethane[Tris]-HCl), containing 1 mM dithiothreitol and 0.5% BSA [fraction-V] (pH 7.6)) and precipitated by centrifugation at 500g for 5 minutes at 4° C.
# (§2) The cleaned cells were homogenized in 50 ml of freshly prepared ice cold 25 mM sucrose in assay buffer containing 1 mM Phenylmethanesulphonyl fluoride and 5 mM Ethylenediaminetetraacetic acid, using a glass TEFLON (polytetra-fluoroethylene) homogenizer, followed by centrifugation at 100 ×g for 5 minutes (4° C.). The supernatant was further centrifuged at 17,000×g for 30 minutes at 4° C., and the pellet (crude membrane preparation) washed briefly and resuspended in the assay buffer (approximately 40-50 μg membrane protein or approximately 1 x 10^6 cell equivalent per 100 μl).
# (§3) For protein determination, aliquots of crude membrane preparations were washed twice with double distilled water by centrifugation (25,000 ×g) and assayed for protein content, using BSA as the standard. The binding assay was carried out at 4° C.
# (§4) The displacement curves were fitted for both single and two classes of binding sites by computer calculated lines, as described.
# (§5) The potency of various GnRH-related peptides in terms of binding (equilibrium dissociation constant; kd) and growth suppression activity in the human hepatocarcinoma derived cell line HepG2 was studied. […] Data analysis was performed as described.
# (§6) Homologous displacement of GnRH-related peptides in membrane homogenates prepared from HepG2 cells and non-cancerous postmortem human liver tissue was studied. Values (mean ± SEM) represent specific binding [B/T, bound over total, in %] determined by subtraction of non-saturable binding in the presence of excess peptides (10^-5 M). Results were obtained from 5 to 7 separated experiments, each carried out in triplicate. The binding data were analyzed by computerized Scatchard analysis (LIGAND) according to Munson and Rodbard.
# [2] = biological target: GnRH binding sites (normal rat liver); experiment: GnRH in vitro binding to normal rat liver membrane preparation; conditions: 95% confidence interval in parentheses, read-out: Receptor Binding Activity (Kd, nM) Normal Rat Liver
# Protocol: as §1, §2
# (§7) A similar protocol was used to prepare the membrane from fresh rat and frozen human postmortem liver. In all experiments the final membrane preparation was used in the radioreceptor assay within 45 minutes.
# as §3, §4
# HepG2 cells = experiment: HepG2 cell proliferation (cell counting); type: cell-based; conditions: for Effect on HepG2 cell proliferation: single administration at 10^-7 M, six days in culture
# Protocol: HepG2 or HuH-7 cells were maintained in 75-cm^2 flasks at 37° C. under a humidified atmosphere of 5% CO2 in modified Minimum Essential Medium (Gibco-BRL) supplemented with 10% fetal bovine serum, 200mM 1-Glutamine (1%), Penicillin (1000 IU/ml), streptomycin (100 μg/ml) and sodium bicarbonate (0.15%). Cells grown to confluence were harvested following mild trypsinization and wash (twice by slow centrifugation; 400 g for 10 minutes) in normal culture medium.
# Approximately 50,000 cells in 1.0 ml culture media were plated in 24 deep well plates (Flacon). This time was considered day -1. Cells were allowed to grow for one day. The growing cells were then treated with various hormones (at day 0) prepared aseptically in culture media immediately prior to addition. The final volume was maintained at 1 ml. The plates were then incubated at 37° C. for a period of 4 to 6 days, as described above.
# Cells in each well were harvested by removal of culture media and incubation with 0.5 ml 0.25% trypsin and 1.75 mM EDTA for 30 minutes at 37° C. Cells were then transferred into 1.5 ml microfuge tubes and centrifuged at 100g for 10 minutes. The supernatant was removed and the pellet was resuspended in a final volume of 200 μl of culture media containing 10% trypan blue.
# Cells were then counted using a hemocytometer. The average cell mortality was less than 5.0% and was not different among different treatment groups. Each value represents the mean and standard error of several experiments (n>3), each carried out in quadruplicate incubations at each time point and hormone concentration.
# as §5
# The effect of GnRH-related peptides on the proliferation of the human hepatoma derived cell line HepG2 was studied. Values (mean ± SEM) represent the percent change with respect to initial cell number at day 0 over a period of six days in culture.
# The dose response curves were analyzed by a computerized, four parameter curve fitting program (ALLFIT) as described. The result of time-related response on cell proliferation was analyzed using a two-way ANOVA with multiple comparison means of using computerized statistical package (SYSTAT).
# [3] = test system: GnRH binding sites (normal human liver); experiment: GnRH in vitro binding to non-cancerous postmortem human liver membrane preparation; conditions: for Displacement / competitive inhibition of labeled [D-Lys6]-GnRH binding to non-cancerous human liver membrane preparation: unlabeled non-GnRH peptides, FIG. 2D; for Kd: 95% confidence interval in parentheses, read-out: Receptor Binding Activity (Kd, nM) Normal Human Liver
# Protocol: as §1, §2, §7, §3, §4, §6
# [4] = biological target: T1, normal pituitary cell GnRH receptors (Rattus norvegicus, UniProt P30969); experiment: GnRH binding, normal rat pituitary; conditions: 95% confidence interval in parentheses, read-out: Receptor Binding Activity (Kd, nM) Normal Rat
# T1 construct: normal pituitary cell GnRH receptors; from tissue; host or cells: normal rat pituitary
# T1 sequence (P30969 1-327): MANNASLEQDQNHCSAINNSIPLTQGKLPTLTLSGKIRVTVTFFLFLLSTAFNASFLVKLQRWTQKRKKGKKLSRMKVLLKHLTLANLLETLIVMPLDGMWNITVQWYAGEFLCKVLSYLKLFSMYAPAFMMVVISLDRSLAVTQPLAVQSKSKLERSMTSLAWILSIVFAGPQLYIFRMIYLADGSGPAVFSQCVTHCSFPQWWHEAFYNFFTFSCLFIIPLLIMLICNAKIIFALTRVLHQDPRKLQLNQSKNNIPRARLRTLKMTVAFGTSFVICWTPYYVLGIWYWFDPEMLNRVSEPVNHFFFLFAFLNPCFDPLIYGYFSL
# Protocol: as §4
# Data analysis was performed as described.
# mammalian pituitary = conditions: reference [11]; cited from earlier work
# [5] = Labeled ligand 125I-[D-Lys6]-GnRH, 4° C.
# [6] = Labeled ligand 125I-[D-Lys6]-GnRH
# [7] = Labeled ligand 125I-[D-Arg6]-sGnRH-A
compound,measurement,setting,value
"CC(C)C[C@H](NC(=O)CNC(=O)[C@H](Cc1ccc(O)cc1)NC(=O)[C@H](CO)NC(=O)[C@H](Cc1c[nH]c2ccccc12)NC(=O)[C@H](Cc1c[nH]cn1)NC(=O)[C@@H]1CCC(=O)N1)C(=O)N[C@@H](CCCNC(=N)N)C(=O)N1CCC[C@H]1C(=O)NCC(N)=O [GnRH, reference compound]",Kd,[1]; [5],9.17 nM
same,Kd,[2]; [6],384 nM
same,Effect on HepG2 cell proliferation,HepG2 cells,suppressed
"NC(=O)[C@@H]1CCCN1C(=O)[C@H](Cc1cnc[nH]1)NC(=O)[C@@H]1CCC(=O)N1 [TRH, Thyrotropin releasing hormone]",Displacement / competitive inhibition of labeled [D-Lys6]-GnRH binding to HepG2 membrane preparation,[1],did not show competitive inhibition
same,Displacement / competitive inhibition of labeled [D-Lys6]-GnRH binding to HepG2 membrane preparation,[1]; listed as Thyrotropin releasing hormone (TRH),did not displace
same,Displacement / competitive inhibition of labeled [D-Lys6]-GnRH binding to non-cancerous human liver membrane preparation,[3],did not displace
"CCNC(=O)[C@@H]1CCCN1C(=O)[C@H](CC(C)C)NC(=O)[C@H](Cc1c[nH]c2ccccc12)NC(=O)[C@@H](CCCNC(=N)N)NC(=O)[C@H](Cc1ccc(O)cc1)NC(=O)[C@H](CO)NC(=O)[C@H](Cc1c[nH]c2ccccc12)NC(=O)[C@H](Cc1c[nH]cn1)NC(=O)[C@@H]1CCC(=O)N1 [[D-Arg^6]-sGnRH-A, pGlu-His-Trp-Ser-Tyr-DArg-Trp-Leu-Pro-N-ethylamide] ([pGlu]HWSY[dR]WLP-NHEt)",Kd,[1]; [7],7.09 nM
same,Kd,[3]; [7],3850 nM
same,Kd,[2]; [7],833 nM
same,Kd,[4]; [7],0.334 nM
CC(C)C[C@H](NC(=O)CNC(=O)[C@H](Cc1c[nH]cn1)NC(=O)[C@H](CO)NC(=O)[C@H](Cc1c[nH]c2ccccc12)NC(=O)[C@H](Cc1c[nH]cn1)NC(=O)[C@@H]1CCC(=O)N1)C(=O)N[C@@H](CC(N)=O)C(=O)N1CCC[C@H]1C(=O)NCC(N)=O [cfGnRH] ([pGlu]HWSHGLNPG-NH2),Kd,[1]; [5],17.9 nM
same,Kd,[2]; [6],8330 nM
same,Kd,[4]; [6],140 nM
same,Suppression of HepG2 growth ED50,HepG2 cells,2.29 nM
same,Effect on HepG2 cell proliferation,HepG2 cells,suppressed
CC(C)C[C@H](NC(=O)[C@H](CO)NC(=O)[C@H](Cc1ccc(O)cc1)NC(=O)[C@H](Cc1c[nH]cn1)NC(=O)[C@@H]1CCC(=O)N1)C(=O)N[C@@H](CCC(=O)O)C(=O)N[C@@H](Cc1c[nH]c2ccccc12)C(=O)N[C@@H](CCCCN)C(=O)N1CCC[C@H]1C(=O)NCC(N)=O [lGnRH] ([pGlu]HYSLEWKPG-NH2),Kd,[1]; [5],66.6 nM
same,Kd,[3]; [6],6660 nM
same,Kd,[2]; [6],8330 nM
same,Kd,[4]; [6],2 nM
same,Suppression of HepG2 growth ED50,HepG2 cells,1.5 nM
same,Effect on HepG2 cell proliferation,HepG2 cells,suppressed
same,Gonadotropin release activity in rat and sheep pituitary,mammalian pituitary,little
same,Potency in releasing gonadotropin from mammalian pituitary compared to mammalian based GnRH analogs,mammalian pituitary,significantly lower potency
CC(C)C[C@H](NC(=O)[C@H](Cc1c[nH]c2ccccc12)NC(=O)CNC(=O)[C@H](Cc1ccc(O)cc1)NC(=O)[C@H](CO)NC(=O)[C@H](Cc1c[nH]c2ccccc12)NC(=O)[C@H](Cc1c[nH]cn1)NC(=O)[C@@H]1CCC(=O)N1)C(=O)N1CCC[C@H]1C(=O)NCC(N)=O [sGnRH] ([pGlu]HWSYGWLPG-NH2),Kd,[3]; [6],7140 nM
same,Kd,[2]; [6],1560 nM
same,Kd,[4]; [6],179 nM
same,Suppression of HepG2 growth ED50,HepG2 cells,7.55 nM
same,Effect on HepG2 cell proliferation,HepG2 cells,suppressed
same,Potency in releasing gonadotropin from mammalian pituitary compared to mammalian based GnRH analogs,mammalian pituitary,significantly lower potency
Met Enkephalin [Met-Enkephalin],Displacement / competitive inhibition of labeled [D-Lys6]-GnRH binding to HepG2 membrane preparation,[1],did not show competitive inhibition
same,Displacement / competitive inhibition of labeled [D-Lys6]-GnRH binding to HepG2 membrane preparation,[1]; listed as Met Enkephalin,did not displace
same,Displacement / competitive inhibition of labeled [D-Lys6]-GnRH binding to non-cancerous human liver membrane preparation,[3],did not displace
"α-melanocyte stimulating hormone [α-MSH, reference compound]",Displacement / competitive inhibition of labeled [D-Lys6]-GnRH binding to HepG2 membrane preparation,[1],did not displace; also recorded: did not show competitive inhibition
same,Displacement / competitive inhibition of labeled [D-Lys6]-GnRH binding to non-cancerous human liver membrane preparation,[3],did not displace
same,Effect on HepG2 cell proliferation,HepG2 cells,lack of effect; also recorded: did not

# Source: patent US5760000A (University Technologies International,Inc., priority 1994, dated 1998)
